Measurements taken from ChEMBL document CHEMBL1142723, “Discovery of a potent, selective, and efficacious class of reversible alpha-ketoheterocycle inhibitors of fatty acid amide hydrolase effective as analgesics” (J Med Chem, 2005).

Assays:
[1] = target: T1, Fatty-acid amide hydrolase 1 (Rattus norvegicus, UniProt P97612); assay: Inhibitory constant determined against recombinant Fatty-acid amide hydrolase from rat expressed in Escherichia coli
T1 sequence (P97612 whole entry): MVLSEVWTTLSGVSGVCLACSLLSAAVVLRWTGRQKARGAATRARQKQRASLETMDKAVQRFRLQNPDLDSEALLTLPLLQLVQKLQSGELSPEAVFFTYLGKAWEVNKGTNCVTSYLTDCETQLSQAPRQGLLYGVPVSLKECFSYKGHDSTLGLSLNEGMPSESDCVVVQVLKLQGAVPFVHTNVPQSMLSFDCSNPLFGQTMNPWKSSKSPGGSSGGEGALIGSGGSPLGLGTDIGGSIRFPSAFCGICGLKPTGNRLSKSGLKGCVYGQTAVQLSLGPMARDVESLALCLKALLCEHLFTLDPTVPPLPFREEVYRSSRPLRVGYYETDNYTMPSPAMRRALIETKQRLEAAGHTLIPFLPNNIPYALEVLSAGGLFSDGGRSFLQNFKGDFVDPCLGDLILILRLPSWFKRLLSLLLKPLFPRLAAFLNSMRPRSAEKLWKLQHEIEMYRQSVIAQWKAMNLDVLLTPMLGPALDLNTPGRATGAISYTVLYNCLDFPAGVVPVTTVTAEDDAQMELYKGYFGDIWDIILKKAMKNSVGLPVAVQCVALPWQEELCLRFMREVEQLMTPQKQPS

[2] = Inhibitory concentration against KIAA1363 hydrolase
[3] = target: T2, Fatty-acid amide hydrolase 1 (Homo sapiens, UniProt O00519); assay: Inhibitory concentration against Fatty-acid amide hydrolase
T2 sequence (O00519 whole entry): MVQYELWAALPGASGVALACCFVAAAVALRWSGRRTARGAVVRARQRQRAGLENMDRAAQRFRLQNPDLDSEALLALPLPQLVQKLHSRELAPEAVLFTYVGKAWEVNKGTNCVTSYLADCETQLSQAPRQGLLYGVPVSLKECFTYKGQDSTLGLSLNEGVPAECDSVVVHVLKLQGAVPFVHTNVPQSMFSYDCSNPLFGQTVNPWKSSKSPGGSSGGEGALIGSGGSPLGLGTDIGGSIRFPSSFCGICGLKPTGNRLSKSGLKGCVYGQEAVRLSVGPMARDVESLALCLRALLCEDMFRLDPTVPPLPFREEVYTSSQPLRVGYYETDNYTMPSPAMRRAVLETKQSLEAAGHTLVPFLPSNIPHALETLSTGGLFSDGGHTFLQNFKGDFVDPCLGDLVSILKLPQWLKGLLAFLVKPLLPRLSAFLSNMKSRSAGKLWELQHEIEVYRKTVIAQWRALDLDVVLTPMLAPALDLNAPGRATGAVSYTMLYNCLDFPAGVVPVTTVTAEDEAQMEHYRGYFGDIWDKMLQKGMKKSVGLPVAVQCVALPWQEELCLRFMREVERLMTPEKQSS

Liver carboxylesterase 1 = target: T3, Liver carboxylesterase 1 (Homo sapiens, UniProt P23141); assay: Inhibitory concentration against Triacylglycerol hydrolase
T3 sequence (P23141 whole entry): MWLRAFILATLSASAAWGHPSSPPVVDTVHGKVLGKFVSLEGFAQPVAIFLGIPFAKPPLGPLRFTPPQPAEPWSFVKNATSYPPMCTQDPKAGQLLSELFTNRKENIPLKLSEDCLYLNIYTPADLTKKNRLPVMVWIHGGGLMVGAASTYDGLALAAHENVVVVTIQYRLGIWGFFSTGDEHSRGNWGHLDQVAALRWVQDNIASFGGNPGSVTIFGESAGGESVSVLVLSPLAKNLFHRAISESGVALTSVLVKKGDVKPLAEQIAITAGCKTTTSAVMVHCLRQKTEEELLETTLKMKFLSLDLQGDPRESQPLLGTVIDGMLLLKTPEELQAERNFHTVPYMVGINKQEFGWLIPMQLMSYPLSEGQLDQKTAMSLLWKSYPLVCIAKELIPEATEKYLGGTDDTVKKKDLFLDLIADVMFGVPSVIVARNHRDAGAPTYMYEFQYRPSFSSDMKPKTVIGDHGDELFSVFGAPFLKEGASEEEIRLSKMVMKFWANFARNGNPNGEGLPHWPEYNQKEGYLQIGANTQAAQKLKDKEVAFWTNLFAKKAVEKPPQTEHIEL

[4] = target: T2, Fatty-acid amide hydrolase 1; assay: Inhibitory constant determined against recombinant Fatty-acid amide hydrolase from human expressed in COS-7 cells; type: cell-based

| Ki [1] | Compound | other results |
| --- | --- | --- |
| 3300 nM | OC(CCCCCCc1ccccc1)c1ncc(-c2ccccn2)o1 (centres undefined) | – |
| 23200 nM | CCCCCCCC/C=C\CCCCCCCCc1ncc(-c2ccccn2)o1 | – |
| 4.6 nM | O=C(CCCCCCc1ccccc1)c1ncc(-c2ncco2)o1 | – |
| 3.3 nM | CCCCCCCCCCC(=O)c1ncc(-c2ccccn2)o1 | – |
| – | O=C(CCCCCc1ccccc1)C(F)(F)F | IC50 [2]: 800 nM |
| 61 nM | CCCCCCCC/C=C\CCCCCCCC(=O)c1ncc(-c2cccnc2)o1 | – |
| 0.14 nM | CCCCCCCCC#CCCCCCCCC(=O)c1nc2ncccc2o1 | IC50 [2]: 20000 nM; IC50 [3]: 2 nM; IC50 (Liver carboxylesterase 1): 500 nM |
| 11000 nM | CCCC(=O)c1ncc(-c2ccccn2)o1 | – |
| 31 nM | CCCCCCCC/C=C\CCCCCCCC(=O)c1nc(-c2ccccn2)co1 | – |
| 41 nM | CCCCCCCC/C=C\CCCCCCCC(=O)c1nc(-c2cccnc2)co1 | – |
| 22 nM | O=C(CCCCCCc1ccccc1)c1ncc(-c2cncnc2)o1 | – |
| 940 nM | CCCCCC(=O)c1ncc(-c2ccccn2)o1 | – |
| 3800 nM | CCCCCCCC/C=C\CCCCCCCC(=O)c1nc(C)c(C)o1 | – |
| 16 nM | CCCCCCCC/C=C\CCCCCCCC(=O)c1ncc(-c2nccs2)o1 | – |
| – | O=C(CCCCCCCc1ccccc1)C(F)(F)F | IC50 [2]: 200 nM |
| – | O=C(c1ccccc1)C(F)(F)F | IC50 [2]: 10000 nM; IC50 [3]: > 100000 nM; IC50 (Liver carboxylesterase 1): 4 nM |
| 16 nM | CCCCCCCC/C=C\CCCCCCCC(=O)c1nc(-c2ccncn2)co1 | – |
| 890 nM | CCCCCCCC/C=C\CCCCCCCC(=O)c1ncc(-c2cccs2)o1 | – |
| 610 nM | CCCCCCCC/C=C\CCCCCCCC(=O)c1ncc(-c2ccoc2)o1 | – |
| 21 nM | O=C(CCCC#Cc1ccccc1)c1ncc(-c2ccccn2)o1 | – |
| 0.28 nM | O=C(CCCCCCc1ccccc1)c1nc2ncccc2o1 | IC50 [2]: 20000 nM |
| 320 nM | CCCCCCCC/C=C\CCCCCCCC(=O)c1ncc(-c2ccccc2)o1 | – |
| 3000 nM | CCCCC(=O)c1ncc(-c2ccccn2)o1 | – |
| – | O=C(CCCCCc1ccccc1)c1nc2ccccc2o1 | IC50 [2]: > 100000 nM |
| 20000 nM | c1ccc(CCCCCCCc2ncc(-c3ccccn3)o2)cc1 | – |
| 4300 nM | OC(CCCCCCc1ccccc1)c1ncc(-c2cccnn2)o1 (centres undefined) | – |
| 5.8 nM | O=C(CCCCCCc1ccccc1)c1ncc(-c2nccs2)o1 | – |

| Ki [1] | Compound | other results |
| --- | --- | --- |
| 17000 nM | O=C(Cc1ccccc1)c1ncc(-c2ccccn2)o1 | – |
| 370 nM | CCCCCCCC/C=C\CCCCCCCC(=O)c1nc2ccccc2o1 | IC50 [2]: > 100000 nM |
| 13200 nM | CCCCCCCC/C=C\CCCCCCCC(=O)c1ncc(-c2ccsc2)o1 | – |
| – | O=C(Cc1ccccc1)C(F)(F)F | IC50 [2]: 10000 nM; IC50 [3]: > 100000 nM; IC50 (Liver carboxylesterase 1): 10 nM |
| 1300 nM | C#CCCCCC(=O)c1ncc(-c2ccccn2)o1 | – |
| – | O=C(CCCCCCc1ccccc1)C(F)(F)F | IC50 [2]: 200 nM |
| 2.3 nM | O=C(CCCCCCc1ccccc1)c1ncc(-c2ccncn2)o1 | – |
| 10600 nM | CCCCCCCC/C=C\CCCCCCCC(O)c1ncc(-c2ccccn2)o1 (centres undefined) | – |
| 10 nM | CCCCCCCCC#CCCCCCCCC(=O)c1ncc(-c2ccccn2)o1 | IC50 [2]: > 100000 nM; IC50 [3]: 20 nM; IC50 (Liver carboxylesterase 1): 30000 nM |
| 16 nM | CCCCCCCC/C=C\CCCCCCCC(=O)c1nc(-c2ncccn2)co1 | – |
| – | CCCCCCCC/C=C\CCCCCCCC(=O)c1ncco1 | Ki [4]: 45 nM; IC50 [2]: > 100000 nM |
| 200 nM | O=C(CCc1ccccc1)c1ncc(-c2ccccn2)o1 | – |
| 5.3 nM | O=C(CCCCCCc1ccccc1)c1ncc(-c2cnccn2)o1 | – |
| 59 nM | CCCCCCCCCCCCCCCCCC(=O)c1ncc(-c2ccccn2)o1 | – |
| – | CCCCCCCCCCCCCCCCCC(=O)C(F)(F)F | IC50 [2]: 6600 nM |
| 120 nM | O=C(CCCc1ccccc1)c1ncc(-c2ccccn2)o1 | – |
| 33 nM | O=C(CCCCc1ccccc1)c1ncc(-c2ccccn2)o1 | – |
| > 100000 nM | CCCCCCCC/C=C\CCCCCCCC(=O)c1nc(-c2ccccc2)c(-c2ccccc2)o1 | – |
| 47 nM | CCCCCCCC/C=C\CCCCCCCC(=O)c1ncc(-c2nccn2C)o1 | – |
| > 100000 nM | CC(=O)c1ncc(-c2ccccn2)o1 | – |
| 20 nM | O=C(CCCCC#Cc1ccccc1)c1ncc(-c2ccccn2)o1 | – |
| 48000 nM | CCC(=O)c1ncc(-c2ccccn2)o1 | – |
| 5.6 nM | O=C(CCCCCCc1ccccc1)c1ncc(-c2cccnn2)o1 | – |
| 78 nM | CCCCCCCC/C=C\CCCCCCCC(=O)c1nc(-c2ccncc2)co1 | – |
| 7.5 nM | O=C(CCCCCCCc1ccccc1)c1ncc(-c2ccccn2)o1 | – |
| 11 nM | O=C(CCCCCc1ccccc1)c1ncc(-c2ccccn2)o1 | – |
| 2.3 nM | CCCCCCCC/C=C\CCCCCCCC(=O)c1nc2ncccc2o1 | IC50 [2]: 60000 nM |

| Ki [1] | Compound | other results |
| --- | --- | --- |
| 21 nM | CCCCCCCCCCCCCCCC(=O)c1ncc(-c2ccccn2)o1 | – |
| 12 nM | CCCCCCCC/C=C\CCCCCCCC(=O)c1ncc(-c2ncco2)o1 | – |
| 2.2 nM | CCCCCCCCCCCC(=O)c1ncc(-c2ccccn2)o1 | – |
| 170 nM | CCCCCCC(=O)c1ncc(-c2ccccn2)o1 | – |
| 13 nM | CCCCCCCCCCCCCC(=O)c1ncc(-c2ccccn2)o1 | – |
| 5900 nM | OC(CCCCCCc1ccccc1)c1ncc(-c2ncccn2)o1 (centres undefined) | – |
| – | CCCCCCCCCCCC(=O)C(F)(F)F | IC50 [2]: 500 nM; IC50 (Liver carboxylesterase 1): 60 nM |
| 22 nM | O=C(CCCCCCCCCCc1ccccc1)c1ncc(-c2ccccn2)o1 | – |
| 10 nM | O=C(CCCCCCCCCc1ccccc1)c1ncc(-c2ccccn2)o1 | – |
| 14 nM | CCCCCCCC/C=C\CCCCCCCC(=O)c1ncc(-c2cccnn2)o1 | – |
| 7.8 nM | O=C(CCCCCCCCc1ccccc1)c1ncc(-c2ccccn2)o1 | – |
| 56 nM | CCCCCCCC/C=C\CCCCCCCC(=O)c1ncc(-c2ccncc2)o1 | – |
| 490 nM | CCCCCCCC/C=C\CCCCCCCC(=O)c1nc(-c2ccccc2)co1 | – |
| 4.6 nM | O=C(CCCCCCc1ccccc1)c1ncc(-c2ncccn2)o1 | – |
| 200 nM | C[Si](C)(C)C#CCCCCC(=O)c1ncc(-c2ccccn2)o1 | – |
| – | CCCCCCCC(=O)C(F)(F)F | IC50 [2]: 1500 nM |
| – | CCCCCCCCCC(=O)C(F)(F)F | IC50 [2]: 400 nM |
| 23 nM | C#CCCCCCCCC(=O)c1ncc(-c2ccccn2)o1 | – |
| 18 nM | CCCCCCCC/C=C\CCCCCCCC(=O)c1ncc(-c2cnccn2)o1 | – |
| – | O=C(CCCCCCc1ccccc1)c1ncc(-c2ccccn2)o1 | IC50 [2]: > 100000 nM |
| 8600 nM | CCCCCCCC/C=C\CCCCCCCC(=O)c1ncc(-c2cccn2C)o1 | – |
| 11 nM | C=CCCCCCCCC(=O)c1ncc(-c2ccccn2)o1 | – |
| 15 nM | CCCCCCCCC(=O)c1ncc(-c2ccccn2)o1 | – |
| – | CCCCCCCC/C=C\CCCCCCCC(=O)c1ncc(-c2ccccn2)o1 | Ki [4]: 10 nM; IC50 [2]: > 100000 nM; IC50 [3]: 150 nM; IC50 (Liver carboxylesterase 1): > 100000 nM |
| 9 nM | CCCCCCCCCC(=O)c1ncc(-c2ccccn2)o1 | – |
| 49 nM | CCCCCCCC(=O)c1ncc(-c2ccccn2)o1 | – |

| Compound | Ki [1] | other results |
| --- | --- | --- |
| O=C(CCCCCc1ccccc1)c1nc2ncccc2o1 | 0.2 nM | IC50 [2]: 10000 nM |
| CCCCCCCC/C=C\CCCCCCCC(=O)C(F)(F)F | 80 nM | IC50 [2]: 1100 nM; IC50 [3]: 4500 nM; IC50 (Liver carboxylesterase 1): 4800 nM |
